As usually defined, the MIC is the lowest concentration found to suppress growth. What is called MBC is the lowest tested concentration that kills the bacteria rather than only halting them.

This is an account of results in paper PMC7459823, “Characterization of Five Novel Anti-MRSA Compounds Identified Using a Whole-Animal Caenorhabditis elegans/Galleria mellonella Sequential-Screening Approach” (Antibiotics, 2020).

One series concerns A549. Put plainly: MTT cytotoxicity, A549. The note with it: A549, 24 hr.
Series [1] relates to MRSA-MW2 infection of C. elegans. Nature of the series: C. elegans–MRSA-MW2 high-throughput screen (Z-score, alive versus dead worms). Type of series: in vivo, Caenorhabditis elegans. To be noted: screening concentration 2.86 µg/mL, hits Z > 2. The source says: The five compounds: (4,4′,4″-(4-propyl-[1H]-pyrazole-1,3,5-triyl)trisphenol, PPT; (1S,2S)-2-[2-[[3-(1H-benzimidazol-2-yl)propyl]methylamino]ethyl]-6-fluoro-1,2,3,4-tetrahydro-1-(1-methylethyl)-2- naphthalenyl cyclopropanecarboxylate dihydrochloride, NNC; 4,5,6,7-tetrabromobenzotriazole, TBB; 3-[2-[2-chloro-4-[3-(2,6-dichlorophenyl)-5-(1-methylethyl)-4-isoxazolyl]methoxy]phenyl] ethenyl] benzoic acid, GW4064; and N-(cyclopropylmethoxy)-3,4,5-trifluoro-2-[(4-iodo-2-methylphenyl)amino] benzamide, PD198306) were purchased from Tocris Bioscience at the following levels of purity: PPT: >99.7%, NNC: >98%, TBB: >99%, GW4064: >97%, and PD198306: 98.8%. […] Hits were identified based on Z-scores. Z-scores are calculated from the ratio of alive versus dead worms after treatment with test compounds and represents the number of standard deviations (SD) the test compound differs from the mean using the formula Z = (x − μ)/σ; where x is the raw sample score, μ is the mean of the population and σ is the standard deviation of the population. Samples with Z > 2σ are considered hits.

The next series deals with MRSA-MW2. Put plainly: Checkerboard synergy assay (FIC index). Type of series: cell-based, Staphylococcus aureus. The note with it: synergy FIC ≤ 0.5. As to the method:
The combination of two antibiotics with different modes of action can reduce bacterial resistance and sometimes even restore clinical efficacy of an antibiotic that has lost effectiveness. The five compounds were tested against MRSA-MW2 in the presence of five clinical antibiotics from different classes (i.e., polymyxin B, gentamycin, erythromycin, doxycycline, and oxacillin).
Antibacterial synergy for combinations of the compounds with each other and with clinical antibiotics (doxycycline, gentamicin, polymyxin-B, oxacillin, and erythromycin) was measured using checkerboard assays. In short, Cultures of MRSA-MW2 were adjusted to OD600 = 0.06 and one compound was arrayed horizontally and other vertically in 96 well plates. The assays were carried out in triplicate, exactly as described for the antibacterial susceptibility assays. The inhibitory effects of compound combinations were evaluated using the Fractional Inhibitory Concentration (FIC) index, derived from the formula:FIC index = FICA + FICB = [A]/MICA + [B]/MICB
MIC of substance A tested in combination /MIC of substance A tested alone + MIC of substance B tested in combination/MIC of substance B tested alone. Synergy is indicated when FIC ≤ 0.5, indifference when 0.5 ≤ FIC ≤ 4, and antagonism when FIC > 4. Experiments were performed in duplicate and report the average FIC index.

A further series relates to Klebsiella pneumoniae. Put plainly: Broth microdilution MIC, Klebsiella pneumoniae. The format is cell-based. As for the experimental part:
(§1) In vitro antibacterial activities were determined using the broth microdilution method. Assays were performed as described in Clinical and Laboratory Standards Institute protocols in triplicate using cation-adjusted Muller–Hinton broth (Becton Dickinson and Company, Franklin Lakes, NJ, USA) in 96-well plates with a total assay volume of 100 µL. Two-fold serial dilutions of test compounds were prepared over the concentration range of 1–64 µg/mL. The bacterial concentration was adjusted to OD600 = 0.06. […] A 10 µL aliquot from each well in the MIC assays was plated onto Muller–Hinton agar (Becton Dickinson and Company, Franklin Lakes, NJ, USA) and incubated overnight at 37 °C. The lowest concentration of compound for which no growth was observed on agar plates was reported as the minimal bactericidal concentration (MBC).
A general note: Dilution methods test growth across graded concentrations, often in twofold steps.

The subject of series [2] is clinical S. aureus isolate BF4. Put plainly: Broth microdilution MIC, clinical S. aureus isolate BF4. Type of series: cell-based. To be noted: Staphylococcus aureus. As to the method:
as §1

A further series relates to Enterococcus faecium. Put plainly: Broth microdilution MIC, Enterococcus faecium. The format is cell-based. As to the method:
as §1

For series [3], the system named is clinical S. aureus isolate BF2. Put plainly: Broth microdilution MIC, clinical S. aureus isolate BF2. The format is cell-based. The note with it: Staphylococcus aureus. As for the experimental part:
as §1

Another series concerns Acinetobacter baumannii. Put plainly: Broth microdilution MIC, Acinetobacter baumannii. Type of series: cell-based. As for the experimental part: as §1
Series [4] has as its system clinical S. aureus isolate BF3. Put plainly: Broth microdilution MIC, clinical S. aureus isolate BF3. Type of series: cell-based. To be noted: Staphylococcus aureus. As to the method: as §1
For the next series, the system named is Pseudomonas aeruginosa. Put plainly: Broth microdilution MIC, Pseudomonas aeruginosa. Type of series: cell-based. As to the method: as §1
Series [5] relates to MRSA MW2 infection of Galleria mellonella larvae. Nature of the series: G. mellonella–MRSA survival assay. Type of series: in vivo. The note with it: larvae infected with MRSA MW2 5 × 10^5 CFU, compound 10 mg/kg 2 h after infection, monitored 120 h; untreated 1 day. As to the method:
Larvae were infected with MRSA MW2 (5 × 10^5 CFU) in the left rear proleg, and after two hours, the compounds were introduced separately at 10 mg/kg into the right rear proleg and larvae survival was monitored for 120 h.
Assays were performed as described previously. Briefly, sixteen randomly selected G. mellonella larvae (Vanderhorst, Inc., St. Mary’s, OH, USA) between 300–350 mg were used for each test group. MRSA-MW2 was grown in Tryptic Soy Broth (TSB), washed with phosphate buffered saline (PBS, pH = 7.4), and diluted to OD600 = 0.3 before inoculation into G. mellonella larvae. A 10-μL inoculum was injected into the last left proleg using a 10-μL Hamilton syringe. After 2 h, compounds were administered into the last right proleg and larvae were incubated at 37 °C. G.mellonella survival was monitored for 120 h, and death was confirmed when there was no response. Killing curves and differences in survival were analyzed by the Kaplan–Meier method using GraphPad Prism version 8 (GraphPad Software, La Jolla, CA, USA). Statistical analysis (Kruskal–Wallis test) was carried out using the same program.

The test system of series [6] is clinical S. aureus isolate BF1. Nature of the series: Broth microdilution MIC, clinical S. aureus isolate BF1. The format is cell-based. The note with it: Staphylococcus aureus. As for the experimental part: as §1
For the next series, the system named is Enterobactor aerogens. Put plainly: Broth microdilution MIC, Enterobactor aerogens. Type of series: cell-based. As to the method:
as §1

For series [7], the system named is MRSA MW2. Nature of the series: Sytox green membrane permeabilization. The format is cell-based, Staphylococcus aureus. The note with it: compounds at 64 µg/mL, monitored over 1 h. As for the experimental part: To determine whether the compounds target bacterial membranes, MRSA MW2 was treated with the compounds and uptake of the membrane-impermeable DNA-binding fluorescent dye Sytox green was monitored over 1 h (Figure 4).
Sytox Green (Life Technologies, Needham, MA, USA) membrane permeabilization assays were performed as previously described. The experiments were carried out in duplicate in 96-well plates. Cells were grown to log phase and were harvested by centrifuging at 3700× g for 5 min. The cells were washed twice with PBS and resuspended to OD600 = 0.2, following which 5 µM Sytox green was added to the cells and the bacteria-dye mixture were incubated in the dark for 30 mins.
Cell suspensions (50 µL) were added to 50 µL of test compounds (64 µg/mL in PBS) and fluorescence intensity was measured (excitation 485 nm, emission 530 nm) periodically over 60 min.

In a further series the test system is HepG2. Nature of the series: MTT cytotoxicity, HepG2. The note with it: HepG2, 24 hr.
In series [8] the test system is MRSA MW2. Put plainly: Broth microdilution antibacterial susceptibility (MIC/MBC), MRSA MW2. The format is cell-based, Staphylococcus aureus. As for the experimental part: as §1
A further series concerns MKN-28. Nature of the series: MTT cytotoxicity, MKN-28. The note with it: MKN-28, 24 hr.
The mark [9] stands for this setting: Enterobactor aerogens, read-out: MIC.
Where [10] appears, read: Staphylococcus aureus, MRSA MW2, 18 h, 37 °C, read-out: MIC.
[11] abbreviates: Staphylococcus aureus, MRSA MW2, read-out: MBC.
[12] abbreviates: Staphylococcus aureus, stated in text across MRSA MW2 and four clinical S. aureus isolates, read-out: MIC against MRSA MW2 and the clinical isolates.

The structures appear in SMILES notation. In brackets after ≈: the same amount, converted by molar mass. Like-named read-outs stand apart in the source and are kept apart here.

Description for A549: (§2) Mammalian cell lines HepG2 (hepatic cells), A549 (epithelial cells), and MKN-28 (gastric cells) were used to measure the anti-proliferative properties of test compounds, as described elsewhere [28]. Cells were grown in Dulbecco’s Modified Eagle Medium (DMEM) (Gibco, Waltham, MA, USA) supplemented with 10% Fetal Bovine Serum (FBS) (Gibco, Waltham, MA, USA) and 1% penicillin/streptomycin (Gibco, Waltham, MA, USA) and maintained at 37 °C in 5% CO2. After harvesting, the cells were suspended in DMEM and 100 µL was added to the wells of 96-well plates. The test compounds were serially diluted in serum and antibiotic free DMEM, added to the monolayer of cells, and incubated at 37 °C in 5% CO2 for 24 hr. Percentage survival was calculated by comparison to DMSO-treated vehicle controls. Assays were carried out in triplicate.
Description for HepG2: as §2
Description for MKN-28: as §2

Consider `CC(C)c1onc(-c2c(Cl)cccc2Cl)c1COc1ccc(C=Cc2cccc(C(=O)O)c2)c(Cl)c1` [GW4064, 3-[2-[2-Chloro-4-[[3-(2,6-dichlorophenyl)-5-(1-methylethyl)-4-isoxazolyl]methoxy]phenyl]ethenyl]benzoic acid], for which the Eukaryotic cell cytotoxicity in the series on A549 came to 16 µg/mL; in the series with HepG2, 4 µg/mL; in the series with MKN-28, 8 µg/mL. The same compound had a Z-Score in series [1] of 3.28. Also, the “Fractional Inhibitory Concentration (FIC) Index” value with MRSA-MW2 (with Doxycycline) worked out at 2.06; with MRSA-MW2 (with Erythromycin), 1.0; with MRSA-MW2 (with Gentamycin), 0.5; in the series on MRSA-MW2 (with Oxacillin) it was 1.0; in the series with MRSA-MW2 (with Polymyxin B), 0.75. Besides, the MIC is greater than 64 µg/mL in the series with Klebsiella pneumoniae (read-out: MIC); 8 µg/mL (≈ 14.7 µM) in [2] (BF4, read-out: MIC); 8 µg/mL (≈ 14.7 µM) in the series with Enterococcus faecium (read-out: MIC); 4 µg/mL (≈ 7.37 µM) in [3] (BF2, read-out: MIC); greater than 64 µg/mL with Acinetobacter baumannii (read-out: MIC); 8 µg/mL (≈ 14.7 µM) in series [4] (BF3, read-out: MIC). Moreover, the MIC with Pseudomonas aeruginosa (read-out: MIC) is greater than 64 µg/mL; in series [6] (BF1, read-out: MIC) it was 4 µg/mL (≈ 7.37 µM); in the series with Enterobactor aerogens (setting [9]) it was greater than 64 µg/mL; with MRSA MW2 [8] (setting [10]), 8 µg/mL (≈ 14.7 µM); in the series on MRSA MW2 [8] (setting [12]), 4 to 8 µg/mL (≈ 7.37 to 14.7 µM). This compound also returned a median post-infection survival in [5] of 2 days. Besides, in the series with MRSA MW2 [7], the “cellular fluorescence (Sytox green uptake)” value is “no changes in cellular fluorescence”. For the same compound, the MBC in the series with MRSA MW2 [8] (MRSA MW2) and in the series with MRSA MW2 [8] (setting [11]) was greater than 64 µg/mL throughout.
Regarding `CCCc1c(-c2ccc(O)cc2)nn(-c2ccc(O)cc2)c1-c1ccc(O)cc1` [PPT, 4,4′,4″-(4-Propyl-[1H]-pyrazole-1,3,5-triyl)trisphenol], the Eukaryotic cell cytotoxicity with A549 was 16 µg/mL; in the series with HepG2 it was 8 µg/mL; with MKN-28, 8 µg/mL. In [1], the Z-Score was 5.54. Further, the “Fractional Inhibitory Concentration (FIC) Index” value is listed as 0.5 in the series on MRSA-MW2 (with Doxycycline); 0.75 with MRSA-MW2 (with Erythromycin); 1.0 in the series with MRSA-MW2 (with Gentamycin); 1.0 in the series on MRSA-MW2 (with Oxacillin); 2.0 in the series with MRSA-MW2 (with Polymyxin B). In addition, the MIC in the series on Klebsiella pneumoniae (read-out: MIC) is greater than 64 µg/mL; in series [2] (BF4, read-out: MIC), 8 µg/mL (≈ 20.7 µM); in the series on Enterococcus faecium (read-out: MIC), 8 µg/mL (≈ 20.7 µM); in series [3] (BF2, read-out: MIC), 8 µg/mL (≈ 20.7 µM); with Acinetobacter baumannii (read-out: MIC), greater than 64 µg/mL; in [4] (BF3, read-out: MIC), 8 µg/mL (≈ 20.7 µM). The MIC with Pseudomonas aeruginosa (read-out: MIC) is greater than 64 µg/mL; in [6] (BF1, read-out: MIC), 8 µg/mL (≈ 20.7 µM); in the series with Enterobactor aerogens (setting [9]), greater than 64 µg/mL; with MRSA MW2 [8] (setting [10]), 8 µg/mL (≈ 20.7 µM); in the series on MRSA MW2 [8] (setting [12]) it was 8 µg/mL (≈ 20.7 µM). In [5], this compound came in with a median post-infection survival of 2 days. Moreover, the “cellular fluorescence (Sytox green uptake)” value with MRSA MW2 [7] is “increases in cellular fluorescence”. The MBC in the series on MRSA MW2 [8] (setting [11]) stood at 32 µg/mL (≈ 82.8 µM).
As for `CN[C@H](CC(C)C)C(=O)N[C@H]1C(=O)N[C@@H](CC(N)=O)C(=O)N[C@H]2C(=O)N[C@H]3C(=O)N[C@H](C(=O)N[C@H](C(=O)O)c4cc(O)cc(O)c4-c4cc3ccc4O)[C@H](O)c3ccc(c(Cl)c3)Oc3cc2cc(c3O[C@@H]2O[C@H](CO)[C@@H](O)[C@H](O)[C@H]2O[C@H]2C[C@](C)(N)[C@H](O)[C@H](C)O2)Oc2ccc(cc2Cl)[C@H]1O` [Vancomycin], the MIC with Klebsiella pneumoniae was greater than 64 µg/mL; in series [2] it was 2 µg/mL (≈ 1.38 µM); with Enterococcus faecium it was 4 µg/mL (≈ 2.76 µM); in series [3] it was 2 µg/mL (≈ 1.38 µM); against Acinetobacter baumannii, greater than 64 µg/mL; in series [4], 2 µg/mL (≈ 1.38 µM). The MIC in the series with Pseudomonas aeruginosa is greater than 64 µg/mL; in series [6] it was 2 µg/mL (≈ 1.38 µM); against Enterobactor aerogens it was greater than 64 µg/mL; in the series on MRSA MW2 [8] (Staphylococcus aureus, MRSA, 18 h), 1 µg/mL (≈ 0.69 µM). The compound further yielded an MBC with MRSA MW2 [8] (Staphylococcus aureus, MRSA) of 8 µg/mL (≈ 5.52 µM).
